Reference: patent US20170165363A1, “CANCER CELL MIGRATION INHIBITORS AND THEIR USE IN THERAPEUTIC TREATMENTS” (THE JOHNS HOPKINS UNIVERSITY, priority 2015, published 2017)

Test system: human fibrosarcoma HT1080 cells
Test: Velocity of matrix-embedded cells in 3D collagen I matrix (live-cell tracking)
Assay type: cell-based
Details: for cell velocity: human fibrosarcoma cells embedded in a 3D matrix at LD (ρ=10) and HD (ρ=50), compared to cells exposed to fresh medium (0); for cell-density-dependent migration: matrix-embedded cells at low and high cell densities; for cell velocity / cell migration on addition of recombinant cytokine: HT1080 seeded at low density (10 cells/mm^3), combination at the precise concentrations found at 50 cells/mm^3, ratio 5:2
Description: HT1080 cells were embedded in 2mg/ml type I collagen gel as described previously by Fraley et al^20. Briefly, cell suspensions containing 5000 to 75,000 cells in 1:1 (v/v) ratio of cell culture media and reconstitution buffer were mixed with appropriate volume of soluble rat-tail collagen I (Corning Inc.) to obtain a final collagen I concentration of 2 mg/ml. A calculated amount of 1M NaOH was added quickly and the final solution was mixed well to bring the pH to ˜7. The cell suspensions was added to a 24-well coverslip-bottom cell-culture dish and immediately transferred to an incubator maintained at 36° C. to allow polymerization. Fresh medium was added 1 h before imaging. MDA MB 231 and U-87 cells were embedded in 1 mg/ml type I collagen matrix
Phase-contrast images of matrix-embedded cells were recorded 2 min apart for 16.5 h using a Cascade 1K CCD camera (Roper Scientific) mounted on a Nikon TE2000 microscope with a 10× objective lens. Single cells were tracked using Metamorph imaging software. A custom MATLAB program calculated the velocity for each cell using the x- and y-coordinates obtained from tracking data using the following equation: […]
Recombinant IL-6 and IL-8 (R&D systems) reconstituted in DPBS (Life technologies) were added to matrix embedded cells with a cell density of 10 cells/mm^3 and imaged as described above (See velocity and protrusion topology of matrix embedded cells). Matrix embedded cells with cell densities of 10 cells/mm^3 and 50 cells/mm^3 were exposed to specific IL-6 and IL-8 functional antibodies (Proteintech) at a concentration of 0.5 μg/mL. Matrix embedded cells with cell densities of 10 cells/mm^3 and 50 cells/mm^3 were exposed to Tocilizumab (Roche) and Reparixin (Dompe pharmaceuticals) STAT3 and WASF3 activity
Matrix embedded with cell densities of 10 cells/mm^3 and 50 cells/mm^3 were exposed to JAK2 inhibitor, AG-490 (Santa Cruz Biotechnology), STAT3 inhibitor, S31-201, (Santa Cruz Biotechnology) and ARP 2/3 complex inhibitor, CK 666, (Sigma-Aldrich) for 1 h before cells were imaged as described above. (See velocity and protrusion topology of matrix embedded cells)

Compound | cell velocity | cell-density-dependent migration | also measured
N#C/C(=C/c1ccc(O)c(O)c1)C(=O)NCc1ccccc1 [AG-490] | Decreased cell velocity | prevented cell-density-dependent migration | –
Cc1[nH]c2ccccc2c1CCNC(=O)c1ccccc1F [CK666] | Decreased cell velocity | prevented cell-density-dependent migration | –
CC(C)Cc1ccc([C@@H](C)C(=O)NS(C)(=O)=O)cc1 [Reparixin, (2R)-2-[4-(2-methylpropyl)phenyl]-N-methylsulfonylpropanamide] | decreased cell velocity | – | –
Cc1ccc(S(=O)(=O)OCC(=O)Nc2ccc(C(=O)O)c(O)c2)cc1 [S3I-201] | Decreased cell velocity | prevented cell-density-dependent migration | –
Tocilizumab: a recombinant humanized, anti-human IL-6 receptor monoclonal antibody currently used in the treatment of Rheumatoid Arthritis | decreased cell velocity | – | –
recombinant IL-6: human recombinant IL-6 (R&D systems) | – | – | cell velocity / cell migration on addition of recombinant cytokine: do not increase cell velocity; cell velocity / cell migration on addition of recombinant cytokine (listed as IL-6): no effect on cell migration
recombinant IL-8: human recombinant IL-8 (R&D systems) | – | – | cell velocity / cell migration on addition of recombinant cytokine: do not increase cell velocity; cell velocity / cell migration on addition of recombinant cytokine (listed as IL-8): no effect on cell migration
